In patent publication US20260306495A1, “COMBINATION OF CAPIVASERTIB, A CDK4/6 INHIBITOR AND FULVESTRANT FOR USE IN THE TREATMENT OF BREAST CANCER” (AstraZeneca AB, priority 2023, published 2026):

Experiments:
[1] = test system: participants with locally advanced (inoperable) or metastatic HR+/HER2− breast cancer; assay: Dose-limiting toxicities (DLTs), CAPItello-292 Phase Ib, palbociclib triplet; format: in vivo, human; details: triplet with capivasertib and fulvestrant
Source text: The Phase Ib part of the study consists of an open-label, 3-arm dose finding phase to determine the safe and well tolerated doses and schedules (RP3D) of capivasertib plus CDK4/6i (palbociclib, ribociclib, or abemaciclib) and fulvestrant (the latter administered at fixed dose and schedule, as per label) as triplet combinations in participants with ABC. The maximum tolerated doses (MTD) may also be determined. […]

[2] = Pharmacokinetics, palbociclib triplet, CAPItello-292 Phase Ib; format: in vivo, human
Procedure: In the open-label Phase Ib part of the study: • The initial palbociclib cohort will receive capivasertib (320 mg oral twice daily, 4 days on and 3 days off for 4 weeks), palbociclib (125 mg, oral once daily, dosed continually for 21 days out of 28 days), and fulvestrant (500 mg intramuscular injection [IM] monthly [Day 1 of a 28-day cycle] with a loading dose of 500 mg 2 weeks after the first dose). • The initial ribociclib cohort will explore the combination of capivasertib (400 mg oral twice daily, 4 days on and 3 days off for 4 weeks), ribociclib (400 mg, oral once daily, dosed continually for 21 days out of 28 days), and fulvestrant (500 mg IM monthly [Day 1 of a 28-day cycle] with a loading dose of 500 mg 2 weeks after the first dose). • The initial abemaciclib cohort will explore the combination of capivasertib (400 mg oral twice daily, 4 days on and 3 days off for 4 weeks), abemaciclib (100 mg, oral twice daily, 28 days out of 28 days), and fulvestrant (500 mg IM monthly [Day 1 of a 28-day cycle] with a loading dose of 500 mg 2 weeks after the first dose).
At the time of data cut-off of 31 Oct. 2022, 39 patients had been treated with capivasertib in combination with palbociclib and fulvestrant across three dose levels. Dose 1 opened first; dose levels 2 and 3 opened simultaneously: • Dose level 1: capivasertib 320 mg+palbociclib 125 mg+fulvestrant 500 mg • Dose level 2: capivasertib 400 mg+palbociclib 100 mg+fulvestrant 500 mg • Dose level 3: capivasertib 400 mg+palbociclib 125 mg+fulvestrant 500 mg

[3] = Pharmacokinetics, Japanese participants; format: in vivo, human (Japanese); details: 100 mg oral (Japanese) vs 125 mg oral (rest of the world), with capivasertib 400 mg; preliminary limited data
Source text: (§1) For the Phase Ib part of the study, participants must be eligible for fulvestrant therapy and at least one of the following: palbociclib, ribociclib, or abemaciclib, as per local investigator assessment. Participants who received treatment with at least one prior endocrine therapy (alone or in combination) for ABC and a maximum of 2 lines prior chemotherapy (for global participants) or up to 1 prior line of chemotherapy (for Japanese participants) are eligible. […]

Japanese participants = assay: DLTs, Japanese participants; format: in vivo, human (Japanese); details: capivasertib + palbociclib 125 mg + fulvestrant
Source text: as §1

[4] = Yu Y, et al. J Clin Pharmacol 2017; 57 (2): 173-184; cited from earlier work
[5] = Pharmacokinetics, ribociclib triplet (preliminary modelling from clinical data); format: in vivo, human; details: for Increase of capivasertib AUC vs historical monotherapy data: preliminary modelling from clinical data
Procedure: In the open-label Phase Ib part of the study: • The initial palbociclib cohort will receive capivasertib (320 mg oral twice daily, 4 days on and 3 days off for 4 weeks), palbociclib (125 mg, oral once daily, dosed continually for 21 days out of 28 days), and fulvestrant (500 mg intramuscular injection [IM] monthly [Day 1 of a 28-day cycle] with a loading dose of 500 mg 2 weeks after the first dose). • The initial ribociclib cohort will explore the combination of capivasertib (400 mg oral twice daily, 4 days on and 3 days off for 4 weeks), ribociclib (400 mg, oral once daily, dosed continually for 21 days out of 28 days), and fulvestrant (500 mg IM monthly [Day 1 of a 28-day cycle] with a loading dose of 500 mg 2 weeks after the first dose). • The initial abemaciclib cohort will explore the combination of capivasertib (400 mg oral twice daily, 4 days on and 3 days off for 4 weeks), abemaciclib (100 mg, oral twice daily, 28 days out of 28 days), and fulvestrant (500 mg IM monthly [Day 1 of a 28-day cycle] with a loading dose of 500 mg 2 weeks after the first dose). […]

SMILES: CC(=O)c1c(C)c2cnc(Nc3ccc(N4CCNCC4)cn3)nc2n(C2CCCC2)c1=O [palbociclib, 6-acetyl-8-cyclopentyl-5-methyl-2-{[5-(1-piperazinyl)-2-pyridinyl]amino}pyrido[2,3-d]pyrimidin-7 (8H)-one]
- Cause of the most frequent DLT (neutropenia/neutrophil count decreased) [1]: driven by palbociclib
- Palbociclib AUC accumulation, Day 11/Day 1 ratio ([2]; Cycle 1 Day 11 / Cycle 0 Day 1, with capivasertib and fulvestrant, 90% CI): 2.89 (90% CI 2.64-3.15)
- Palbociclib AUC accumulation, Day 14/Day 1 ratio ([2]; Cycle 1 Day 14 / Cycle 0 Day 1, with capivasertib and fulvestrant, 90% CI): 2.77 (90% CI 2.54-3.03)
- Increase of palbociclib area under curve (AUC) by capivasertib ([2]; based on observed and expected accumulation from Cycle 0, Day 1 to Cycle 1, Day 11 and Day 14): approximately 20%
- Mean palbociclib plasma exposure, Japanese participants vs rest of the world [3]: roughly similar
- Incidence of DLTs (febrile neutropenia) (Japanese participants): led to palbociclib dose de-escalation from 125 mg to 100 mg
- Palbociclib expected accumulation ratio [4]: 2.4

SMILES: NC1(C(=O)N[C@@H](CCO)c2ccc(Cl)cc2)CCN(c2ncnc3[nH]ccc23)CC1 [capivasertib, (S)-4-amino-N-(1-(4-chlorophenyl)-3-hydroxypropyl)-1-(7H-pyrrolo[2,3-d]pyrimidin-4-yl) piperidine-4-carboxamide]
- PK of capivasertib versus previous monotherapy data ([2]; in combination with palbociclib and fulvestrant): consistent with previous monotherapy data
- Increase of capivasertib AUC vs historical monotherapy data ([5]; with ribociclib 400 mg, 95% CI 1% to 43%): 19%
- Increase of capivasertib AUC vs historical monotherapy data ([5]; with ribociclib 600 mg, 95% CI 0% to 34%): 16%

SMILES: CN(C)C(=O)c1cc2cnc(Nc3ccc(N4CCNCC4)cn3)nc2n1C1CCCC1 [ribociclib, 7-cyclopentyl-N,N-dimethyl-2-{[5-(1-piperazinyl)-2-pyridinyl]amino}-7H-pyrrolo[2,3-d]pyrimidine-6-carboxamide]
- Ribociclib exposure vs published population PK model ([5]; with capivasertib, consistent with DDI predictions based on capivasertib as a weak CYP3A inhibitor): generally within model predictions
